For orientation: MRT means a mean duration of stay, worked out from the concentration-time curve. As a reminder, the clearance is the volume of plasma or blood freed of the substance per unit of time. A higher clearance goes with a high capacity for elimination. A word on the bioavailability: it is the share of a dose that reaches the circulation, judged against a reference dose that is usually intravenous. Lower therefore signals poor availability.

One data set relates to blood glucose. Kind of data set: Test for hypoglycemic activity in fasted female rats (oral). In kind it is in vivo. The following applies: Rattus norvegicus, po, read-out: Change in glucose content compared with control. How it is done:
Blood samples were taken immediately before the administration of the test compound and 1, 2, 3 and 4 hours afterwards, in each case from the retroorbital Venous plexus. 50 μl of each sample were deproteinated with 0.5 ml of 0.33 N perchloric acid and centrifuged. The glucose in the supernatant fluid was measured using the hexokinase method with the aid of an analytical photometer. The statistical evaluation was made using the t-test according to Student with p=0.05 as the limit of significance.

For data set [1], the system named is mice. Nature of the data set: Acute toxicity of compound N, single oral dose, mice. It is filed as in vivo. The following applies: 14 days. How it is done: The toxic effect of a single dose of compound N administered orally (suspended in 1% methyl cellulose) was tested in male and female mice of our own strain weighing from 20-26 g over an observation period of 14 days.

The subject of data set [2] is mice. Kind of data set: Acute toxicity, single oral dose 2,000 mg/kg, mice. It is filed as in vivo. The following applies: 2,000 mg/kg p.o., 5 male and 5 female mice, 14 days.
A further data set is described as follows: clinical. Particulars: human, plasma, 1 mg.
Another data set concerns blood sugar. Nature of the data set: Blood sugar-lowering effect of the enantiomers in fasted female rats (oral). It is filed as in vivo. The following applies: 1.0 mg/kg p.o. How it is done: The substances to be investigated were suspended in 1.5% methylcellulose immediately before the start of the test and administered into the oesophagus. […] Glucose was measured in the supernatant by the hexokinase method using an analytical photometer. The statistical evaluation was carried out using the Student's t-test with p=0.05 as the limit of significance. Table 1 which follows contains the statistically significant values as percentage deviations from the control: […]

Structures are written as SMILES. Read-outs that look alike come from different tables or passages of the source.

Procedure for clinical: More specifically, the studies which follow were carried out on healthy male volunteers in whom the levels of glucose and active substance in the course of time were determined:
In the interests of more precise clarification, study 5 was carried out (randomised, open, crossover). […] 2 hours after administration a standard breakfast (B) was eaten, 5 hours after administration a standard lunch (L) was eaten and 10 hours after administration a standard dinner (D) was eaten. Blood samples were taken at different times. The glucose concentrations were measured in the plasma as in study 1. […] The plasma concentrations of AG-EE 624 ZW were calculated as the difference between the two concentrations found:

For the molecule `CCOc1cc(CC(=O)NC(CC(C)C)c2ccccc2N2CCCCC2)ccc1C(=O)O` (racemic) [N, 2-ethoxy-4-[N-{1-(2-piperidino-phenyl)-3-methyl-1-butyl}-aminocarbonylmethyl]-benzoic acids], the change in vivo at 0.1 mg/kg was -38% with blood glucose (1 h), -44% in the data set with blood glucose (2 h), -41% in the data set on blood glucose (3 h) and -40% in the data set with blood glucose (4 h). Moreover, the Deaths in the data set on mice [1] (1000 mg/kg p.o.) is listed as 0 out of 6 animals died. Moreover, the Approximate acute toxicity in the data set with mice [1] (p.o.) is > 1000 mg/kg.
Take `CCOc1cc(CC(=O)NC(c2ccccc2)c2ccccc2N2CCCCC2)ccc1C(=O)O` (stereo not drawn) [D, 2-ethoxy-4-[N-(α-phenyl-2-piperidino-benzyl)-aminocarbonylmethyl]-benzoic acid]: the change in vivo at 1 mg/kg is -42% in the data set on blood glucose (1 h), -54% with blood glucose (2 h), -37% in the data set on blood glucose (3 h) and -34% in the data set with blood glucose (4 h). In the data set on mice [2], the Deaths entry is given as “only one animal in this group died”.
With `CCOc1cc(CC(=O)N[C@H](CC(C)C)c2ccccc2N2CCCCC2)ccc1C(=O)O` [AG-EE 624 ZW, (R)(-)-2-ethoxy-4-[N-[1-(2-piperidino-phenyl)-3-methyl-1-butyl]aminocarbonylmethyl]-benzoic acid], the MRT in the data set “clinical” (iv) came to 3.3 ± 1.7 h. Moreover, the clearance in the data set “clinical” (iv) was 75 ± 34 mL/min. For the same molecule, the bioavailability in the data set “clinical” (po) was 83 ± 32%. Moreover, the “Glucose, percentage deviation from control” value in the data set on blood sugar (1 h), in the data set with blood sugar (2 h), in the data set with blood sugar (3 h) and with blood sugar (4 h) was “n.s” in each case.

Source of the values: US6143769A, “Phenylacetic acid benzylamides” (Karl Thomae GmbH, priority 1983, dated 2000).
